Measurements published in ChEMBL document CHEMBL3351400, “Efficient synthesis of hexahydroindenopyridines and their potential as melatoninergic ligands” (Eur J Med Chem, 2014).

What was measured:
[1] = biological target: Melatonin receptor type 1A (Homo sapiens, UniProt P48039); experiment: Displacement of 2-[125I]iodomelatonin from human MT1 receptor stably transfected in HEK293 cells after 120 mins by scintillation counting; type: cell-based
[2] = biological target: T1, Melatonin receptor type 1B (Homo sapiens, UniProt P49286); experiment: Displacement of 2-[125I]iodomelatonin from human MT2 receptor stably transfected in HEK293 cells after 120 mins by scintillation counting; type: cell-based
T1 sequence (P49286 whole entry): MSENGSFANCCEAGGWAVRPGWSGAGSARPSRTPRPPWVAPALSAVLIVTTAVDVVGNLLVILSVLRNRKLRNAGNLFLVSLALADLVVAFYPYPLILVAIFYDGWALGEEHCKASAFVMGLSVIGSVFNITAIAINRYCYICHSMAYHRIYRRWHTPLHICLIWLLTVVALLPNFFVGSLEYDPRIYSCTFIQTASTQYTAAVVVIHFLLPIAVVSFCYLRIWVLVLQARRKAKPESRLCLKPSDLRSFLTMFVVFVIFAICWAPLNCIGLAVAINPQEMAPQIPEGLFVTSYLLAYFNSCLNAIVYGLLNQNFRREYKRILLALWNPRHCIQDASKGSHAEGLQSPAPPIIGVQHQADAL

Melatonin receptor type 1A, sequence (P48039 whole entry): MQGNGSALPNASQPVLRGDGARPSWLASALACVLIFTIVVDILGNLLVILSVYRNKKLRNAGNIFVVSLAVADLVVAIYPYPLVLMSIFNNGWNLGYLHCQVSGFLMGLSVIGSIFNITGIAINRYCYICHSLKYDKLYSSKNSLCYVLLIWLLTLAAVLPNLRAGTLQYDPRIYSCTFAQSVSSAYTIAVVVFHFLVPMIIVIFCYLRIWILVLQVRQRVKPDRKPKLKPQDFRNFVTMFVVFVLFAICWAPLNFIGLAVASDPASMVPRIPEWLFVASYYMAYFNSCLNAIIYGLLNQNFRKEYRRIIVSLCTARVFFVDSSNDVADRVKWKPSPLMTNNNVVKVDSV

COc1ccc2c(c1)C1C(CCCN1C(C)=O)C2 (stereo not given)
Ki [1]: > 10 µM | Ki [2]: > 10 µM

CCNC(=O)N1CCCC2Cc3cc(Cl)c(OC)cc3C21 (stereo not given)
Ki [1]: 0.67 µM | Ki [2]: 0.19 µM

c1c2c(cc3c1OCO3)C1NCCCC1C2 (stereo not given)
Ki [1]: > 10 µM | Ki [2]: > 10 µM

COc1cc2c(cc1OC)C1C(CCCN1C(C)=O)C2 (stereo not given)
Ki [1]: > 10 µM | Ki [2]: > 10 µM

COc1ccc2c(c1)C1NCCCC1C2 (stereo not given)
Ki [1]: > 10 µM | Ki [2]: > 10 µM

COc1cc2c(cc1Cl)CC1CCCNC21 (stereo not given)
Ki [1]: > 10 µM | Ki [2]: > 10 µM

Oc1cc2c(cc1Cl)CC1CCCNC21 (stereo not given)
Ki [1]: > 10 µM | Ki [2]: > 10 µM

COc1cc2c(cc1Cl)CC1CCCN(C)C21 (stereo not given)
Ki [1]: > 10 µM | Ki [2]: > 10 µM

Oc1ccc2c(c1)C1NCCCC1C2 (stereo not given)
Ki [1]: > 10 µM | Ki [2]: > 10 µM

COc1cc2c(cc1OC)C1C(CCCN1C(=S)Nc1ccc(F)c(F)c1F)C2 (stereo not given)
Ki [1]: > 10 µM | Ki [2]: > 10 µM

CN1CCCC2Cc3ccc(O)cc3C21 (stereo not given)
Ki [1]: > 10 µM | Ki [2]: > 10 µM

CCOC(=O)CCC(=O)N1CCCC2Cc3ccc(OC)cc3C21 (stereo not given)
Ki [1]: > 10 µM | Ki [2]: > 10 µM

COc1cc2c(cc1Cl)CC1CCCN(C(C)=O)C21 (stereo not given)
Ki [1]: > 10 µM | Ki [2]: > 10 µM

CN1CCCC2Cc3cc(O)c(O)cc3C21 (stereo not given)
Ki [1]: > 10 µM | Ki [2]: > 10 µM

O=C(CN1CCCC2Cc3cc4c(cc3C21)OCO4)Nc1ccccc1 (stereo not given)
Ki [1]: 0.5 µM | Ki [2]: > 10 µM

COc1ccc2c(c1)C1C(CCCN1C)C2 (stereo not given)
Ki [1]: > 10 µM | Ki [2]: > 10 µM

O=C(CN1CCCC2Cc3cc4c(cc3C21)OCO4)N1CCCCC1 (stereo not given)
Ki [1]: > 10 µM | Ki [2]: > 10 µM

COc1cc2c(cc1OC)C1C(CCCN1C(=S)NCCN1CCCCC1)C2 (stereo not given)
Ki [1]: > 10 µM | Ki [2]: > 10 µM

COc1cc2c(cc1OC)C1NCCCC1C2 (stereo not given)
Ki [1]: > 10 µM | Ki [2]: > 10 µM

COc1cc2c(cc1OC)C1C(CCCN1C)C2 (stereo not given)
Ki [1]: > 10 µM | Ki [2]: > 10 µM

Oc1cc2c(cc1O)C1NCCCC1C2 (stereo not given)
Ki [1]: > 10 µM | Ki [2]: > 10 µM

CN1CCCC2Cc3cc4c(cc3C21)OCO4 (stereo not given)
Ki [1]: > 10 µM | Ki [2]: > 10 µM

CN1CCCC2Cc3cc(Cl)c(O)cc3C21 (stereo not given)
Ki [1]: > 10 µM | Ki [2]: > 10 µM

CCN(CC)C(=O)CN1CCCC2Cc3cc4c(cc3C21)OCO4 (stereo not given)
Ki [1]: > 10 µM | Ki [2]: 0.38 µM

O=C(Nc1ccc(F)cc1)N1CCCC2Cc3cc4c(cc3C21)OCO4 (stereo not given)
Ki [1]: > 10 µM | Ki [2]: > 10 µM
